Measured values as given in patent US12076421B2, “Assessment of coronary heart disease with carbon dioxide” (priority 2011, dated 2024).

Experiments:
myocardium [1] = test: Myocardial BOLD MRI response to PaCO2 modulation while PaO2 is held constant; type: in vivo, canines
Procedure: In Examples 1-6, all imaging studies were performed in instrumented animals with a Doppler flow probe attached to the LAD coronary arteries for measurement of flow changes in response to CO2 and clinical dose of adenosine. In these studies, CO2 and O2 delivery were tightly controlled using […]. […] At each CO2 level, free-breathing and cardiac gated blood-oxygen-level-dependent (BOLD) acquisitions were prescribed at mid diastole and Doppler flow velocities were measured. Similar acquisitions were also performed with block sequences of CO2 levels; that is, CO2 levels were alternated between 40 and 50 mmHg and BOLD images (and corresponding Doppler flow velocities) were acquired at each CO2 level to assess the reproducibility of the signal changes associated with different CO2 levels. Each delivery of CO2 using […] was made in conjunction with arterial blood draw to determine the arterial blood CO2 levels. […] We assessed the difference between myocardial blood-oxygen-level dependent (BOLD) response under hypercarbia and normocarbia conditions in canines. The BOLD signal intensity is proportional to oxygen saturation. […] The lower panel depicts the difference as obtained by subtracting the signal under rest from that under stress. […] We further assessed the myocardial BOLD response to stepwise CO2 increase (ramp-up) in canines. […] To further evaluate vascular reactivity and coronary response to CO2, we measured the myocardial BOLD signal in response to block increases of CO2 in canines. Specifically, the myocardial BOLD signal was measured as the amount of CO2 administered to the canine subjects alternated between 40 mmHg CO2 and 50 mmHg CO2. […] The myocardium is supplied with blood by the left anterior descending (LAD) artery, the right coronary artery (RCA) and the left circumflex (LCX) artery. We measured the blood flow through each of these arteries in response to increasing CO2 supply. As shown in FIG. 6 and summarized in FIG. 7, in each of the three LAD, RCA and LCX arteries, there is a direct correlation between the amount of CO2 administered and the signal intensity; as the amount of administered CO2 increases, the signal intensity, signaling the blood flow, in each of the three arteries increases. Further, as shown in FIG. 6 and summarized in FIG. 8, there was no response to CO2 modulation in control territories such as blood, skeletal muscle or air. […] Vascular reactivity of three canines that were administered with adenosine was compared with the vascular reactivity of canines that were administered with CO2. As shown in FIGS. 10A and 10B, the hyperemic adenosine stress BOLD response was approximately 12% compared with 16% in response to CO2.

[2] = test system: left anterior descending (LAD) artery; test: Doppler flow in the left anterior descending artery in response to PaCO2 modulation; type: in vivo, canines; conditions: increasing amount of administered CO2, PaO2 held constant
Procedure: (§1) In Examples 1-6, all imaging studies were performed in instrumented animals with a Doppler flow probe attached to the LAD coronary arteries for measurement of flow changes in response to CO2 and clinical dose of adenosine. In these studies, CO2 and O2 delivery were tightly controlled using Respiract. CO2 values were incremented in steps of 10 mmHg starting from 30 mmHg to 60 mmHg and were ramped down in decrements of 10 mmHg. At each CO2 level, free-breathing and cardiac gated blood-oxygen-level-dependent (BOLD) acquisitions were prescribed at mid diastole and Doppler flow velocities were measured. Similar acquisitions were also performed with block sequences of CO2 levels; that is, CO2 levels were alternated between 40 and 50 mmHg and BOLD images (and corresponding Doppler flow velocities) were acquired at each CO2 level to assess the reproducibility of the signal changes associated with different CO2 levels. Each delivery of CO2 using Respiract was made in conjunction with arterial blood draw to determine the arterial blood CO2 levels.
The Doppler flow was measured in the left anterior descending (LAD) artery. […] The relative change in coronary flow velocity was directly proportional to the amount of CO2 administered.

myocardium [3] = test: Myocardial BOLD response to PaCO2 in human volunteers; type: in vivo, humans; conditions: early human data, pCO2 change of 10 mmHg, from 35 mmHg to 45 mmHg
[4] = test system: myocardial blood flow (MBF); test: 13N-ammonia PET myocardial blood flow, canines without coronary stenosis; type: in vivo; conditions: for mean MBF: absence of stenosis, hypercapnia ~25 mmHg increase in PaCO2, standard dose adenosine; for Global MBF normalized by rate-pressure-product: intact canines, in ml/min/g per mmHg·bpm
Procedure: We investigated whether a physiologically tolerable hypercapnia stimulus ( 25-mmHg increase in PaCO2) can increase myocardial blood flow (MBF) to that observed with adenosine in three groups of canines: (i) without coronary stenosis; (ii) subjected to non-flow limiting coronary stenosis; and (iii) following pre-administration of caffeine. These studies were conducted by prospectively and independently controlling PaCO2 and combining it with ^[…]-ammonia Positron Emission Tomography (PET) measurements, and the extent of effect on MBF due to hypercapnia was compared to adenosine. The objectives of these studies were twofold: to investigate the effects of PaCO2 on MBF while minimizing contributions from factors that can unintentionally reduce or inaccurately report on sensitivity of PaCO2 on MBF; and to assess whether an independent, precise and rapid establishment of physiologically tolerable level of hypercapnia provides equivalent hyperemia as adenosine, a commonly used pharmacological stimulus for cardiac stress testing with and without pre-administration of caffeine. To address these aims, a clinically relevant animal model was used along with validated strategies for (i) precisely and rapidly establishing desired levels of PaCO2, while holding PaO2 constant; (ii) quantifying MBF in vivo; and (iii) image analysis to derive MBF values across the different coronary supply territories. We compared our findings to the effects of standard dose of adenosine in the same animal models with and without coronary stenosis to quantify MBF and flow deficit regions under peak tolerable PaCO2. To determine whether MBF response to PaCO2 overlaps the same mechanistic path as adenosine, we quantified MBF under hypercapnia and adenosine following caffeine administration. Studies were conducted as described in Yang, H-J et al., J. Nucl. Med. 58: 953-960 (2017), which is hereby incorporated by reference in its entirety. […] FIG. 13 is a table summarizing the mean arterial CO2, O2 and hemodynamic variables of interest in Group Intact. FIG. 14A-14D show the mean global MBF and MPR response to hypercapnia in relation to adenosine. Global MBF under adenosine and hypercapnia were both higher than at rest (p<0.05, for both) and were not different from one another (p=0.33). […] Similar observations were evident for regional MBF and MPR with hypercapnia and adenosine. The observed range of MBF at rest (0.44 to 1.93 ml/min/g) and adenosine (0.47 to 5.10 ml/min/g) and range of MPR under adenosine (1.20 to 4.57) across the animals is consistent with previous reports (Kuhle, W. G. et al., Circulation 86:1004-1017 (1992)).

[5] = test system: myocardial blood flow (MBF); test: 13N-ammonia PET myocardial blood flow and perfusion defect, canines with LAD coronary stenosis; type: in vivo; conditions: for regional MBF versus rest: all territories (LAD, LCx, RCA); for regional MBF versus rest / MBF increase in the LAD territory: p<0.05; for MBF increase in the LAD territory: compared with LCx and RCA territories
Procedure: We investigated whether a physiologically tolerable hypercapnia stimulus ( 25-mmHg increase in PaCO2) can increase myocardial blood flow (MBF) to that observed with adenosine in three groups of canines: (i) without coronary stenosis; (ii) subjected to non-flow limiting coronary stenosis; and (iii) following pre-administration of caffeine. These studies were conducted by prospectively and independently controlling PaCO2 and combining it with ^[…]-ammonia Positron Emission Tomography (PET) measurements, and the extent of effect on MBF due to hypercapnia was compared to adenosine. The objectives of these studies were twofold: to investigate the effects of PaCO2 on MBF while minimizing contributions from factors that can unintentionally reduce or inaccurately report on sensitivity of PaCO2 on MBF; and to assess whether an independent, precise and rapid establishment of physiologically tolerable level of hypercapnia provides equivalent hyperemia as adenosine, a commonly used pharmacological stimulus for cardiac stress testing with and without pre-administration of caffeine. To address these aims, a clinically relevant animal model was used along with validated strategies for (i) precisely and rapidly establishing desired levels of PaCO2, while holding PaO2 constant; (ii) quantifying MBF in vivo; and (iii) image analysis to derive MBF values across the different coronary supply territories. We compared our findings to the effects of standard dose of adenosine in the same animal models with and without coronary stenosis to quantify MBF and flow deficit regions under peak tolerable PaCO2. To determine whether MBF response to PaCO2 overlaps the same mechanistic path as adenosine, we quantified MBF under hypercapnia and adenosine following caffeine administration. Studies were conducted as described in Yang, H-J et al., J. Nucl. Med. 58: 953-960 (2017), which is hereby incorporated by reference in its entirety. […] FIGS. 16A, 16B, 16E show the mean regional MBF in LAD, left circumflex artery (LCx) and right coronary artery (RCA) supply territories at rest, hypercapnia and adenosine. MBF values were not different at rest among the different supply territories (p>0.4, for all). […] MBF under hypercapnia was not different between the LCx and RCA territories (hypercapnia: p=0.21); the same was true under adenosine (p=0.50). For each myocardial supply territory, MBF under hypercapnia and adenosine were not different (p=1.00, for all). […] MPR under hypercapnia was not different between the LCx and RCA territories (hypercapnia: p=0.59); the same was true under adenosine (p=0.34). For each myocardial supply territory, MPR under hypercapnia and adenosine were not different (p>0.5 for all). […] Perfusion defect volumes and visual scoring under hypercapnia vs. adenosine were determined. TRP obtained under hypercapnia and adenosine were not different: 25±19% (hypercapnia) vs. 27±15% (adenosine); p=0.12. Direct comparison of TRP within the same subjects under hypercapnia and adenosine were highly correlated (R=0.85, p<0.05) and were in good agreement (bias=2%). Similar trends were observed from visual scoring analysis. No difference between the scores from hypercapnia and adenosine was observed from a paired sampled Wilcoxon signed rank test (p=0.26). Visual scores between hypercapnia and adenosine were concordant with most segments falling onto the diagonal of the scoring matrix (FIG. 18).

[6] = test system: myocardial blood flow (MBF); test: 13N-ammonia PET myocardial blood flow following pre-administration of caffeine; type: in vivo, canines; conditions: for MBF response relative to rest: following caffeine administration
Procedure: These studies were conducted by prospectively and independently controlling PaCO2 and combining it with ^13N-ammonia Positron Emission Tomography (PET) measurements, and the extent of effect on MBF due to hypercapnia was compared to adenosine.
The objectives of these studies were twofold: to investigate the effects of PaCO2 on MBF while minimizing contributions from factors that can unintentionally reduce or inaccurately report on sensitivity of PaCO2 on MBF; and to assess whether an independent, precise and rapid establishment of physiologically tolerable level of hypercapnia provides equivalent hyperemia as adenosine, a commonly used pharmacological stimulus for cardiac stress testing with and without pre-administration of caffeine. To address these aims, a clinically relevant animal model was used along with validated strategies for (i) precisely and rapidly establishing desired levels of PaCO2, while holding PaO2 constant; (ii) quantifying MBF in vivo; and (iii) image analysis to derive MBF values across the different coronary supply territories. […] To determine whether MBF response to PaCO2 overlaps the same mechanistic path as adenosine, we quantified MBF under hypercapnia and adenosine following caffeine administration. Studies were conducted as described in Yang, H-J et al., J. Nucl. Med. 58: 953-960 (2017), which is hereby incorporated by reference in its entirety.

LAD coronary arteries = test: Epicardial flow enhancement, Carbogen against clinical dose of adenosine; type: in vivo, dogs; conditions: Carbogen with ETCO2 reaching 48-50 mm Hg
Procedure: as §1
In detail, the color images (lower panel of FIG. 1) are color-coded to the signal intensities of grayscale images (above). The darker colors (blue/black) represent territories of baseline myocardial oxygenation and the brighter regions represent those regions that are hyperemic. […]

SMILES | BOLD signal intensity (myocardium [1]; block increase from 40 mmHg CO2 to 50 mmHg CO2, canines) | BOLD signal intensity (myocardium [1]; hypercarbia (60 mm Hg) vs normocarbia (30 mmHg), canines) | signal intensity, signaling the blood flow, in LAD, RCA and LCX arteries (myocardium [1]; increasing amount of administered CO2) | BOLD signal intensity (myocardium [1]; stepwise CO2 increase (ramp-up), canines) | Doppler flow in LAD artery [2] | hyperemic response (BOLD) (myocardium [3]) | mean MBF [4] [mL/min/g] | Global MBF normalized by rate-pressure-product [4] | total reduction in perfusion volume (TRP, % LV) between stress and rest [5] [%] | regional MBF versus rest [5] | MBF increase in the LAD territory [5] | MBF response relative to rest [6] | resting MBF normalized by rate-pressure-product ([6]; post-administration of caffeine (1.5×10^−5 pre-administration, p=0.03)) | epicardial flow enhancement response (LAD coronary arteries) | hyperemic BOLD response (myocardium [1]; canines, mean, adenosine stress in three canines) | global MPR ([6]; under caffeine, p<0.05)
O=C=O [CO2, carbon dioxide] | increase in BOLD signal intensity | increase in BOLD signal intensity | increases | increases | increases | approximately 11% | 2.1 ± 0.9 | 1.26×10^−5±0.56×10^−5 | 25±19 | increased | significantly lower than in the LCx and RCA territories | able to induce myocardial hyperemia | – | – | – | –
Cn1c(=O)c2c(ncn2C)n(C)c1=O [caffeine] | – | – | – | – | – | – | – | – | – | – | – | – | 1.0×10^−5 | – | – | –
Nc1ncnc2c1ncn2[C@@H]1O[C@H](CO)[C@@H](O)[C@H]1O [adenosine, reference compound] | – | – | – | – | – | – | 2.2 ± 1.1 | 1.16×10^−5±0.80×10^−5 | 27±15 | increased | significantly lower than in the LCx and RCA territories | no change in MBF | – | about 20% | approximately 12% | lower than under hypercapnia
